According to PMC3534870 (Bioorganic & medicinal chemistry letters, 2012):

What was measured:
p450 3A4 = p450 3A4 (Homo sapiens, UniProt P08684); assay: p450 inhibition 3A4; type: in vitro ADME; conditions: 10 µM drug
[1] = CNS exposure: plasma and brain levels in mice; conditions: t = 6h
FXR = target: T1, FXR (Homo sapiens, UniProt Q96RI1); assay: Gal4 DBD-NR LBD cotransfection assay, FXR; type: cell-based; conditions: data not shown
T1 sequence (Q96RI1 262-486 limits assumed): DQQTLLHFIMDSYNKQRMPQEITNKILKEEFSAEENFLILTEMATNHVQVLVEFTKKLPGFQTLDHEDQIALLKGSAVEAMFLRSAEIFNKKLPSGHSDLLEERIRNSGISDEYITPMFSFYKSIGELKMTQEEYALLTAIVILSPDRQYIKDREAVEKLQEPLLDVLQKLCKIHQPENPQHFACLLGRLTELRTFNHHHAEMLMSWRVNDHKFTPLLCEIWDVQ

Solubility = type: physicochemical; conditions: 20hr
LXRα = target: T2, LXRα (Homo sapiens, UniProt Q13133); assay: Gal4 DBD-NR LBD cotransfection assay, LXRα; type: cell-based; conditions: data not shown
T2 sequence (Q13133 209-447 limits assumed): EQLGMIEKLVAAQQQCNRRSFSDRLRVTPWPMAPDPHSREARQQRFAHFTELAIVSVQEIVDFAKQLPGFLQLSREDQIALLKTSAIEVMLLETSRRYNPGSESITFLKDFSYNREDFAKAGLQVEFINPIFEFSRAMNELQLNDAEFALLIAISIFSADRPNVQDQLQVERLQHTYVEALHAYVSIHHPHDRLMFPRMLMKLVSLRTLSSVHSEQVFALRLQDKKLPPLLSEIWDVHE

RORα = target: T3, RORα (Homo sapiens, UniProt P35398); assay: Gal4 DBD-NR LBD cotransfection assay, RORα; type: cell-based; conditions: data not shown
T3 sequence (P35398 272-510 limits assumed): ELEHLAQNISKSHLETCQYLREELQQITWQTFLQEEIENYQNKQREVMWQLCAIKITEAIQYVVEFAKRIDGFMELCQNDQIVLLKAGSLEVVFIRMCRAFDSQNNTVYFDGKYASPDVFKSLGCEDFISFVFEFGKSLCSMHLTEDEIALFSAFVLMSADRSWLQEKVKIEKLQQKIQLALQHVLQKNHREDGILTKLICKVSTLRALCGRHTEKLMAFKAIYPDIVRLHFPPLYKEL

p450 2C9 = p450 2C9 (Homo sapiens, UniProt P11712); assay: p450 inhibition 2C9; type: in vitro ADME; conditions: 10 µM drug
Sequence of p450 2C9 (P11712 whole entry): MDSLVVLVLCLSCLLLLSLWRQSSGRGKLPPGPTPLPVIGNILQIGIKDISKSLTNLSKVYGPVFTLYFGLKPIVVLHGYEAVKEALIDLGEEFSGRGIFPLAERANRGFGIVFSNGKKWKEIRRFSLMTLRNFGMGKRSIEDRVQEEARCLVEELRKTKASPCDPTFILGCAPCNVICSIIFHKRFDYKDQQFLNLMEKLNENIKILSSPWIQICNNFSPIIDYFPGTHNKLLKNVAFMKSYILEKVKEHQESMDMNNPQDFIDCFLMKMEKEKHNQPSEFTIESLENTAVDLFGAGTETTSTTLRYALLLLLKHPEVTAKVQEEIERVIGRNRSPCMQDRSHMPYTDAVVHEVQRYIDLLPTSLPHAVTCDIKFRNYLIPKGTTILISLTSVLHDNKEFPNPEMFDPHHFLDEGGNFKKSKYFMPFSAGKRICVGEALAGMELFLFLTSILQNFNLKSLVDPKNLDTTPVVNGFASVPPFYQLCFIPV

GST-RORγ = target: T4, GST-RORγ (Homo sapiens, UniProt P51449); assay: Radioligand binding; conditions: versus 6p
T4 sequence (P51449 269-508 limits assumed): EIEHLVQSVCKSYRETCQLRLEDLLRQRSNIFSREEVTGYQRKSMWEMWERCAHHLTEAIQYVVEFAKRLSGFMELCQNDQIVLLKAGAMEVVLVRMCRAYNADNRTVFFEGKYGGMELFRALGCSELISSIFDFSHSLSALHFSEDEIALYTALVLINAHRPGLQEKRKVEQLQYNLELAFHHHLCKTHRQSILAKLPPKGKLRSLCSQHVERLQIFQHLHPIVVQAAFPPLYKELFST

Sequence of p450 3A4 (P08684 whole entry): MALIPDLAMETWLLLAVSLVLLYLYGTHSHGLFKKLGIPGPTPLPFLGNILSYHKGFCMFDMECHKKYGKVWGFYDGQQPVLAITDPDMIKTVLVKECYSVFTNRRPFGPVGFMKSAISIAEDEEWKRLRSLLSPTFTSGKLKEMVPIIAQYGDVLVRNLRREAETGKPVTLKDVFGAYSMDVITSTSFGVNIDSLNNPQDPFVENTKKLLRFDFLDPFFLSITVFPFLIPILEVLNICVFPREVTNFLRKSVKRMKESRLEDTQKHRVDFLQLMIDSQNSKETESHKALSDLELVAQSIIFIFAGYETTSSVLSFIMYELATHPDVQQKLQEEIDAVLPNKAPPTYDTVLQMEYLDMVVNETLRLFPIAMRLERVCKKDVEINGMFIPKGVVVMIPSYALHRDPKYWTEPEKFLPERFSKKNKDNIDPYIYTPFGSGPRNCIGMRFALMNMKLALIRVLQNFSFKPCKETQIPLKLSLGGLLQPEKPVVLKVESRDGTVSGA

Structure (SMILES): COc1cc(O)c(C(CC(=O)N2CC(C)CC(C)C2)c2ccc3c(c2)OCO3)c(OC)c1 (centres unmarked) [Compound 1]
- p450 % inhibition 3A4 (p450 3A4): high
- [Plasma] ([1]; 10 mg/kg IP in 10:10:80 DMSO:Tween:water): limited
- b.p. (%) brain penetration ([1]; 10 mg/kg IP): good
- activity on FXR (FXR): did not show any activity
- Solubility pH 7.4 (Solubility; 100 µM solution shaken in PBS pH 7.4, room temperature): low to modest
- Solubility pH 5.0 (Solubility; 100 µM solution shaken in Sodium Citrate Buffer pH 5.0, room temperature): low to modest
- activity on LXRα (LXRα): did not show any activity
- activity on RORα (RORα): did not show any activity
- p450 % inhibition 2C9 (p450 2C9): high

Structure (SMILES): COc1ccc(C(CC(=O)NCc2ccccc2)c2c(O)cc(OC)cc2OC)cc1 (centres unmarked) [Compound 6k]
- RORγ activity in words (binding assay) (GST-RORγ): loss of activity

Structure (SMILES): COc1ccc(C(CC(=O)N2CCOCC2)c2c(O)cc(OC)cc2OC)cc1 (centres unmarked) [Compound 6l]
- RORγ activity in words (binding assay) (GST-RORγ): loss of activity

Structure (SMILES): COc1ccc(C(CC(=O)N2CCCCC2)c2c(O)cc(OC)cc2OC)cc1 (centres unmarked) [Compound 6m]
- RORγ activity in words (binding assay) (GST-RORγ): loss of activity

Structure (SMILES): COc1ccc(C(CC(=O)NC2CCCC2)c2c(O)cc(OC)cc2OC)cc1 (centres unmarked) [Compound 6n]
- RORγ activity in words (binding assay) (GST-RORγ): loss of activity

Structure (SMILES): COc1ccc(C(CC(=O)N2CCCC2)c2c(O)cc(OC)cc2OC)cc1 (centres unmarked) [Compound 6o]
- RORγ activity in words (binding assay) (GST-RORγ): loss of activity
